The values that follow come from article PMC10776900, “Identification of structural motifs critical for human G6PC2 function informed by sequence analysis and an AlphaFold2-predicted model” (Bioscience Reports, 2024).

The target in assay [1] is T1, human G6PC2 V219 variant (Homo sapiens, UniProt Q9NQR9).
T1 construct: purified from HEK293S (BacMam) in LMNG micelles
In words: G6Pase activity with acute addition of cholesterol to purified enzyme. Conditions: purified without CHS, LMNG micelles; putative CRAC motif. The assay is classed as biochemical.

The target of assay [2] is T1, human G6PC2 V219 variant. Kind of assay: G6Pase activity of enzyme purified with versus without CHS. As to conditions: CHS 0.05% in solubilisation, 0.02% in later buffers, LMNG micelles; putative CRAC motif. It is filed as biochemical.

`CC(C)CCC[C@@H](C)[C@H]1CC[C@H]2[C@@H]3CC=C4C[C@@H](O)CC[C@]4(C)[C@H]3CC[C@]12C` [cholesterol]: on human G6PC2 V219 variant [1], the “G6Pase activity with acute addition of cholesterol to purified enzyme” value is recorded as “addition of cholesterol decreased the activity of the V219 but not the L219 variant”. As to `CC(C)CCC[C@@H](C)[C@H]1CC[C@H]2[C@@H]3CC=C4C[C@@H](OC(=O)CCC(=O)O)CC[C@]4(C)[C@H]3CC[C@]12C` [cholesterol hemi-succinate], on human G6PC2 V219 variant [2], the “% reduction of Vmax” value is given as ~ 90%.
